Results reported in PMC9606102, “[^89Zr]Zr-PSMA-617 PET/CT in biochemical recurrence of prostate cancer: first clinical experience from a pilot study including biodistribution and dose estimates” (European Journal of Nuclear Medicine and Molecular Imaging, 2022).

What was measured:
prostate cancer lesions = assay: [^68Ga]Ga-PSMA-11 PET/CT findings in the same patients; format: in vivo, human (patients); conditions: for SUVmax of undetermined finding: 1 h p.i.
Procedure: The time interval between both, [^89Zr]Zr-PSMA-617 and [^68Ga]Ga-PSMA-11 PET/CT, was 31 ± 18 days (range 5–49 days), with no treatment performed in between. Prostate-specific antigen (PSA) serum level at time of imaging ranged from 0.43 to 1.92 ng/ml. All patients were initially treated with radical prostatectomy (RP). Initial Gleason score ranged from 7a to 9. Four patients underwent salvage treatments such as androgen-deprivation therapy (ADT), lymphadenectomy (LA) or radiation therapy (RT). Detailed patient characteristics including age, Gleason score, primary therapy, salvage therapies, time from initial diagnosis (ID) of prostate cancer, PSA and PSA doubling time (DT) are presented in Table 1. [^89Zr]Zr-PSMA-617 PET/CT imaging was performed on a compassionate use basis under the German Pharmaceutical Act §13 (2b). The medical indication for the examination and the labeling of the tracer were under the direct responsibility of the applying physician. Patients gave their written consent after being thoroughly informed about the general risks of both radiation exposure and application of a novel PET tracer including possible adverse effects of, e.g., therapeutic PSMA tracers. Furthermore, all patients agreed to the publication of the resulting data in accordance with the Declaration of Helsinki.

[1] = design: method as in PMID 34326129; conditions: cited from earlier work

Compound | Findings on [^68Ga]Ga-PSMA-11 PET/CT (prostate cancer lesions; Pt. no 1, PSA 1.92 ng/ml) | Findings on [^68Ga]Ga-PSMA-11 PET/CT (prostate cancer lesions; Pt. no 2, PSA 1.75 ng/ml) | Findings on [^68Ga]Ga-PSMA-11 PET/CT (prostate cancer lesions; Pt. no 3, PSA 0.66 ng/ml) | Findings on [^68Ga]Ga-PSMA-11 PET/CT (prostate cancer lesions; Pt. no 4, PSA 1.77 ng/ml) | Findings on [^68Ga]Ga-PSMA-11 PET/CT (prostate cancer lesions; Pt. no 5, PSA 0.63 ng/ml) | Findings on [^68Ga]Ga-PSMA-11 PET/CT (prostate cancer lesions; Pt. no 6, PSA 0.43 ng/ml) | Findings on [^68Ga]Ga-PSMA-11 PET/CT (prostate cancer lesions; Pt. no 7, PSA 0.68 ng/ml) | SUVmax of undetermined finding (prostate cancer lesions; patient no. 2, pelvic tracer uptake, considered as unspecific uptake) | SUVmax of undetermined finding (prostate cancer lesions; patient no. 4, faint uptake in peritoneal lesion) | Effective dose [1] [mSv/MBq]
O=C([O-])CN(CCN(CC(=O)[O-])Cc1cc(CCC(=O)NCCCCCC(=O)NCCCC[C@H](NC(=O)N[C@@H](CCC(=O)O)C(=O)O)C(=O)O)ccc1[O-])Cc1cc(CCC(=O)O)ccc1[O-].[68Ga+3].[OH3+] [[^68Ga]Ga-PSMA-11] | No suspicious findings | 1 × LNM + undetermined finding (suspicion of right iliac LNM) | No suspicious findings | Undetermined finding (suspicion of peritoneal metastasis) | No suspicious findings | Undetermined finding (suspicion of local recurrence in seminal vesicle bed) | No suspicious findings | 4.47 | 2.06 | 
[^89Zr]Zr-PSMA-DFO |  |  |  |  |  |  |  |  |  | 0.15 ± 0.04
